Test results from US20020137929A1, “1 - (3-heterocyclylphenyl) isothiourea, -isourea, -guanidine and -amidine herbicidal agents” (Intellectual Property Department, BASF Aktiengesellschaft, priority 1998, published 2002).

Experiments:
ABUTH (Velvetleaf) [1] = test: Preemergence herbicidal evaluation; format: in vivo, Abutilon theophrasti; details: rated 4-5 weeks after treatment
Summary of the method: (§1)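 Herbicidal effect scored visually, 0-9, at 4 to 5 weeks against a control; compound applied preemergence by aqueous acetone spray to seeded soil at about 0.0156 to 0.500 kg/ha.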

CASOB (Sicklepod) = test: Preemergence herbicidal evaluation; format: in vivo, Cassia obtusifolia; details: rated 4-5 weeks after treatment
Summary of the method: as §1

[2] = test system: TRZAWR (Wheat, Winter, cv Riband); test: Postemergence herbicidal evaluation; format: in vivo, Triticum aestivum; details: postemergence
Summary of the method: (§2)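 Scores (0–9) reflect plant stand, vigor, malformation, size, chlorosis and general appearance relative to control, read 4 to 5 weeks after treatment and averaged where tests were repeated. Application: about 0.0156–0.500 kg/ha sprayed at 40 psi onto two-week seedlings.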

[3] = test system: SAGPY (Arrowhead (Pygmaea)); test: Preemergence weed control under flooded paddy conditions; format: in vivo, Sagittaria pygmaea; details: rated 3-4 weeks after treatment
Summary of the method: (§3)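 Ratings on a 0-9 visual scale cover stand, vigor, malformation, size, chlorosis and overall appearance relative to a control, taken three to four weeks post-treatment. Application was into flood water over freshly sown silt loam at roughly 0.0313 to 0.500 kg/ha.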

CYPIR (Rice Flatsedge) = test: Postemergence weed control under flooded paddy conditions; format: in vivo, Cyperus iria; details: postemergence weeds, 3-4 weeks after treatment
Summary of the method: (§4)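 Herbicidal effect is judged by eye on a 0–9 scale versus control, 3–4 weeks after dosing. Dosing is into flood water kept 1.5–3 cm over the soil, at about 0.0313–0.500 kg/ha in aqueous/acetone 50/50 v/v, on 3–5 cm weeds and 1.5–2.5-leaf rice seedlings.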

ABUTH (Velvetleaf) [4] = test: Postemergence herbicidal evaluation; format: in vivo, Abutilon theophrasti; details: postemergence
Summary of the method: as §2

[5] = test system: GLXMAW (Soybean, Williams); test: Postemergence herbicidal evaluation; format: in vivo, Glycine max, (L.) Merr. cv Williams; details: postemergence
Summary of the method: as §2

ORYSAT (Rice, Tebonnet) = test: Postemergence herbicidal evaluation; format: in vivo, Oryza sativa, (L.) Tebonnet; details: postemergence
Summary of the method: as §2

[6] = test system: SAGPY (Arrowhead (Pygmaea)); test: Postemergence weed control under flooded paddy conditions; format: in vivo, Sagittaria pygmaea; details: postemergence weeds, 3-4 weeks after treatment
Summary of the method: as §4

ECHCG (Barnyardgrass) = test: Postemergence herbicidal evaluation; format: in vivo, Echinochloa crus-galli; details: postemergence
Summary of the method: as §2

AMBEL (Ragweed, Common) = test: Postemergence herbicidal evaluation; format: in vivo, Ambrosia artemisifolia; details: postemergence
Summary of the method: as §2

SETVI (Foxtail, Green) [7] = test: Postemergence herbicidal evaluation; format: in vivo, Setaria viridis; details: postemergence
Summary of the method: as §2

MOOVA (Monochoria) = test: Preemergence weed control under flooded paddy conditions; format: in vivo, Monochoria vaginalis; details: rated 3-4 weeks after treatment
Summary of the method: as §3

SETVI (Foxtail, Green) [8] = test: Preemergence herbicidal evaluation; format: in vivo, Setaria viridis; details: rated 4-5 weeks after treatment
Summary of the method: as §1

For `C=CCN1C(=O)CSC1=Nc1cc(N2C(=O)C3=C(CCCC3)C2=O)c(F)cc1Cl` [Compound 2, N-{5-[(3-allyl-4-oxo-2-thiazolidinylidene)amino]-4-chloro-2-fluorophenyl}-1-cyclohexene-1,2-dicarboximide], the “ABUTH preemergence herbicidal rating” value (ABUTH (Velvetleaf) [1]; rate 0.0313 kg/ha) was 0.0, the “ABUTH preemergence herbicidal rating” value (ABUTH (Velvetleaf) [1]; rate 0.0625 kg/ha) was 0.0 and the “ABUTH preemergence herbicidal rating” value (ABUTH (Velvetleaf) [1]; rate 0.5000 kg/ha) was 4.0. For the same compound, the “CASOB preemergence herbicidal rating” value (CASOB (Sicklepod); rate 0.0313 kg/ha) was 2.0, the “CASOB preemergence herbicidal rating” value (CASOB (Sicklepod); rate 0.0625 kg/ha) was 2.0 and the “CASOB preemergence herbicidal rating” value (CASOB (Sicklepod); rate 0.5000 kg/ha) was 2.0. For the same compound, the TRZAWR herbicidal rating ([2]; rate 0.0157 kg/ha) was 1.5, the TRZAWR herbicidal rating ([2]; rate 0.0313 kg/ha) was 2.5 and the TRZAWR herbicidal rating ([2]; rate 0.0625 kg/ha) was 3.0. It also gave a TRZAWR herbicidal rating ([2]; rate 0.1250 kg/ha) of 2.5, a TRZAWR herbicidal rating ([2]; rate 0.2500 kg/ha) of 2.5 and a TRZAWR herbicidal rating ([2]; rate 0.5000 kg/ha) of 3.0. The “Herbicidal rating SAGPY” value ([3]; 0.0313 kg/ha) was 0.0, the “Herbicidal rating SAGPY” value ([3]; 0.0625 kg/ha) was 0.0 and the “Herbicidal rating SAGPY” value ([3]; 0.1250 kg/ha) was 0.0. For the same compound, the “Herbicidal rating SAGPY” value ([3]; 0.2500 kg/ha) was 0.0, the “Herbicidal rating SAGPY” value ([3]; 0.5000 kg/ha) was 0.0 and the “Herbicidal rating CYPIR” value (CYPIR (Rice Flatsedge); rate 0.0313 kg/ha) was 0.0. For the same compound, the “Herbicidal rating CYPIR” value (CYPIR (Rice Flatsedge); rate 0.0625 kg/ha) was 0.0, the “Herbicidal rating CYPIR” value (CYPIR (Rice Flatsedge); rate 0.1250 kg/ha) was 0.0 and the “Herbicidal rating CYPIR” value (CYPIR (Rice Flatsedge); rate 0.2500 kg/ha) was 1.0. For the same compound, the “Herbicidal rating CYPIR” value (CYPIR (Rice Flatsedge); rate 0.5000 kg/ha) was 4.0, the ABUTH herbicidal rating (ABUTH (Velvetleaf) [4]; rate 0.0157 kg/ha) was 0.0 and the ABUTH herbicidal rating (ABUTH (Velvetleaf) [4]; rate 0.0313 kg/ha) was 4.0. For the same compound, the ABUTH herbicidal rating (ABUTH (Velvetleaf) [4]; rate 0.0625 kg/ha) was 9.0, the ABUTH herbicidal rating (ABUTH (Velvetleaf) [4]; rate 0.1250 kg/ha) was 9.0 and the ABUTH herbicidal rating (ABUTH (Velvetleaf) [4]; rate 0.2500 kg/ha) was 9.0. It also gave an ABUTH herbicidal rating (ABUTH (Velvetleaf) [4]; rate 0.5000 kg/ha) of 9.0, a GLXMAW herbicidal rating ([5]; rate 0.0157 kg/ha) of 3.5 and a GLXMAW herbicidal rating ([5]; rate 0.0313 kg/ha) of 3.5. It also gave a GLXMAW herbicidal rating ([5]; rate 0.0625 kg/ha) of 3.5, a GLXMAW herbicidal rating ([5]; rate 0.1250 kg/ha) of 3.0 and a GLXMAW herbicidal rating ([5]; rate 0.2500 kg/ha) of 3.0. For the same compound, the GLXMAW herbicidal rating ([5]; rate 0.5000 kg/ha) was 3.0, the ORYSAT herbicidal rating (ORYSAT (Rice, Tebonnet); rate 0.0157 kg/ha) was 3.0 and the ORYSAT herbicidal rating (ORYSAT (Rice, Tebonnet); rate 0.0313 kg/ha) was 3.0. For the same compound, the ORYSAT herbicidal rating (ORYSAT (Rice, Tebonnet); rate 0.0625 kg/ha) was 3.0, the ORYSAT herbicidal rating (ORYSAT (Rice, Tebonnet); rate 0.1250 kg/ha) was 3.5 and the ORYSAT herbicidal rating (ORYSAT (Rice, Tebonnet); rate 0.2500 kg/ha) was 3.5. For the same compound, the ORYSAT herbicidal rating (ORYSAT (Rice, Tebonnet); rate 0.5000 kg/ha) was 3.0, the “Herbicidal rating SAGPY” value ([6]; rate 0.0313 kg/ha) was 0.0 and the “Herbicidal rating SAGPY” value ([6]; rate 0.0625 kg/ha) was 0.0. The “Herbicidal rating SAGPY” value ([6]; rate 0.1250 kg/ha) was 0.0, the “Herbicidal rating SAGPY” value ([6]; rate 0.2500 kg/ha) was 0.0 and the “Herbicidal rating SAGPY” value ([6]; rate 0.5000 kg/ha) was 1.0. For the same compound, the ECHCG herbicidal rating (ECHCG (Barnyardgrass); rate 0.0157 kg/ha) was 0.0, the ECHCG herbicidal rating (ECHCG (Barnyardgrass); rate 0.0313 kg/ha) was 0.0 and the ECHCG herbicidal rating (ECHCG (Barnyardgrass); rate 0.0625 kg/ha) was 0.0. The ECHCG herbicidal rating (ECHCG (Barnyardgrass); rate 0.1250 kg/ha) was 0.0, the ECHCG herbicidal rating (ECHCG (Barnyardgrass); rate 0.2500 kg/ha) was 0.0 and the ECHCG herbicidal rating (ECHCG (Barnyardgrass); rate 0.5000 kg/ha) was 0.0. For the same compound, the AMBEL herbicidal rating (AMBEL (Ragweed, Common); rate 0.0157 kg/ha) was 4.0, the AMBEL herbicidal rating (AMBEL (Ragweed, Common); rate 0.0313 kg/ha) was 2.0 and the AMBEL herbicidal rating (AMBEL (Ragweed, Common); rate 0.0625 kg/ha) was 6.0. It also gave an AMBEL herbicidal rating (AMBEL (Ragweed, Common); rate 0.1250 kg/ha) of 2.0, an AMBEL herbicidal rating (AMBEL (Ragweed, Common); rate 0.2500 kg/ha) of 6.0 and an AMBEL herbicidal rating (AMBEL (Ragweed, Common); rate 0.5000 kg/ha) of 9.0. It also gave an SETVI herbicidal rating (SETVI (Foxtail, Green) [7]; rate 0.0157 kg/ha) of 0.0, an SETVI herbicidal rating (SETVI (Foxtail, Green) [7]; rate 0.0313 kg/ha) of 0.0 and an SETVI herbicidal rating (SETVI (Foxtail, Green) [7]; rate 0.1250 kg/ha) of 0.0. For the same compound, the SETVI herbicidal rating (SETVI (Foxtail, Green) [7]; rate 0.2500 kg/ha) was 0.0, the SETVI herbicidal rating (SETVI (Foxtail, Green) [7]; rate 0.5000 kg/ha) was 0.0 and the “Herbicidal rating MOOVA” value (MOOVA (Monochoria); 0.0313 kg/ha) was 4.0. For the same compound, the “Herbicidal rating MOOVA” value (MOOVA (Monochoria); 0.0625 kg/ha) was 9.0, the “Herbicidal rating MOOVA” value (MOOVA (Monochoria); 0.1250 kg/ha) was 9.0 and the “Herbicidal rating MOOVA” value (MOOVA (Monochoria); 0.2500 kg/ha) was 9.0. For the same compound, the “Herbicidal rating MOOVA” value (MOOVA (Monochoria); 0.5000 kg/ha) was 9.0, the “SETVI preemergence herbicidal rating” value (SETVI (Foxtail, Green) [8]; rate 0.0313 kg/ha) was 0.0 and the “SETVI preemergence herbicidal rating” value (SETVI (Foxtail, Green) [8]; rate 0.0625 kg/ha) was 0.0. For the same compound, the “SETVI preemergence herbicidal rating” value (SETVI (Foxtail, Green) [8]; rate 0.1250 kg/ha) was 6.0, the “SETVI preemergence herbicidal rating” value (SETVI (Foxtail, Green) [8]; rate 0.2500 kg/ha) was 6.0 and the “SETVI preemergence herbicidal rating” value (SETVI (Foxtail, Green) [8]; rate 0.5000 kg/ha) was 9.0.
